In patent US8546377B2 (AbbVie Inc., priority 2009, dated 2013):
pEC50: −log10 of the molar value. Where two headings read alike, the source gives them in different places.

Columns and labels:
[1] = molecular target: T1, 5HT2C receptors (Homo sapiens, UniProt P28335); test: Human 5-HT2C functional assay in CHO-K1 cells (calcium flux, FLIPR); format: cell-based; parameters: expressed in transfected cells; host or cells: CHO-K1 cells; details: for EC50: CHO-K1 cells over-expressing 5HT2C, calcium flux, read-out: EC50 (μM), 5-HT2c Agonist Activity; for Emax: percentage relative to the effect of serotonin
T1 sequence (P28335 33-458): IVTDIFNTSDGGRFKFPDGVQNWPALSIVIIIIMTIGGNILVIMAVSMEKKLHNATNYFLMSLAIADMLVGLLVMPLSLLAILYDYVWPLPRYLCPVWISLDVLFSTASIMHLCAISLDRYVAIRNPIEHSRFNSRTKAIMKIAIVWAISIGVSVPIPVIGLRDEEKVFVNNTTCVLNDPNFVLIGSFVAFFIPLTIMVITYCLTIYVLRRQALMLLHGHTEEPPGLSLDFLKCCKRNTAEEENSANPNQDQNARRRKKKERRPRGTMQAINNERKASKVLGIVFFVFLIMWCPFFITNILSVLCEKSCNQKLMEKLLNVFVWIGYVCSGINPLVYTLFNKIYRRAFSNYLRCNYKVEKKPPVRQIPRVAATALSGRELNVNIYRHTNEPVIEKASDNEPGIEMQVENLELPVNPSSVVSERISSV
Description: (§1) (iii) Human 5-HT2C and 5-HT2B Functional Assay in CHO-K1 Cells
(§2) CHO-K1 cells over-expressing 5HT2C or 5HT2B receptors were grown in 1272 cm^2 flasks to 70-80% confluency in UltraCHO media supplemented with 1% dialyzed fetal bovine serum (FBS), 250 μg/mL zeocin, 100 U/mL penicillin/streptomycin, and 400 μg/mL geneticin. The cells were dissociated from the flasks using 0.05% trypsin, resuspended in freezing media and stored in liquid nitrogen until use. Calcium flux experiments were done using frozen cells. The cells were diluted in media containing 1% dialyzed FBS and 100 U/mL penicillin/streptomycin and plated into 384-well poly-D-Lysine coated plates (15,000 cells/well). Then the plates were incubated overnight in a cell incubator at 37° C., 5% CO2. On the next day, the growth media was replaced with media without FBS and further incubated overnight. On day three, the changes in intracellular Ca^2+ were determined using calcium sensitive fluorescent dye, Ca4 (MDS Analytical Technologies, Sunnyvale, Calif.) by loading 15 μL of diluted dye with 2.5 mM probenecid into the cells containing media and incubated at room temperature for 60 minutes in dark.
(§3) Fluorescence measurements were read at 25° C. at an excitation wavelength of 480 nm and an emission wavelength of 530 nm in FLIPR (MDS). Baseline fluorescence was measured for the first 10 seconds and then 15 μL of 4× concentrations of serotonin/test compounds was added to the cell plate. The fluorescence intensity was captured every second for the first 1 minute followed by every 5 seconds for an additional 2 minutes. The increase in fluorescent response was determined and was normalized to the response of serotonin. The concentration response of compounds was done from a starting concentration of 10 μM, 1:10 dilution across 6 wells with a final dimethyl sulfoxide concentration of 0.2% and was fitted using a 4-parameter logistic equation. The concentration at which a compound exerts half its maximal effect was named as ‘effective concentration 50’ or ‘EC50’.
(§4) Emax is the maximum functional response or efficacy expressed as a percentage relative to the effect of serotonin.

[2] = molecular target: T2, 5HT2B receptors (Homo sapiens, UniProt P41595); test: Human 5-HT2B functional assay in CHO-K1 cells (calcium flux, FLIPR); format: cell-based; details: for EC50: CHO-K1 cells over-expressing 5HT2B, calcium flux, read-out: EC50 (μM), 5-HT2B Agonist Activity
T2 construct: expressed in transfected cells; host or cells: CHO-K1 cells
T2 sequence (P41595 whole entry): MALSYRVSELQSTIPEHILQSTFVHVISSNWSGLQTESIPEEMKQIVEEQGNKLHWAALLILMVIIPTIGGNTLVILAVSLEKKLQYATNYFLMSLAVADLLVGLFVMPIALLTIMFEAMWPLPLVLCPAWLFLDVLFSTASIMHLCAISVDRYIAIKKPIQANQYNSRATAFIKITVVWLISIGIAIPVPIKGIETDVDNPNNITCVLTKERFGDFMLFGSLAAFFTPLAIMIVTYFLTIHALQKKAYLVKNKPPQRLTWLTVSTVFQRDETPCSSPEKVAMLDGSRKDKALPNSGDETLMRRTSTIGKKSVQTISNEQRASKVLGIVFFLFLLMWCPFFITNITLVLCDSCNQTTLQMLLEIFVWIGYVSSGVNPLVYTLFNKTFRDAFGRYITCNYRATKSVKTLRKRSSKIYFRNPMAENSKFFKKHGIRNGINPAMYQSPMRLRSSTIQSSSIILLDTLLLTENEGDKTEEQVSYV
Description: as §1, §2, §3, §4

[3] = CHO-K1 cells, read-out: Emax (%), 5-HT2c Agonist Activity
[4] = CHO-K1 cells, percentage relative to the effect of serotonin, read-out: Emax (%), 5-HT2B Agonist Activity
[5] = CHO-K1, read-out: Emax (%), 5-HT2c Agonist Activity, CHO-K1 cells
[6] = CHO-K1, read-out: Emax (%), 5-HT2B Agonist Activity

Compound | EC50 [1] [µM] | Emax [1, 3] [%] | EC50 [2] [µM] | Emax [2, 4] [%] | pEC50 [1] | Emax [1, 5] [%] | pEC50 [2] | Emax [2, 6] [%]
O=C1CC2CNCCN2c2cc(-c3ccsc3)ccc2N1 (stereo not shown) [Example 72, 10-(3-thienyl)-1,2,3,4,4a,5-hexahydropyrazino[1,2-a][1,5]benzodiazepin-6(7H)-one] | 0.07 | > 120 | 2 | 20 | – | – | – | –
O=C1CC2CNCCN2c2cc(-c3cccc(-n4cccn4)c3)ccc2N1 (stereo not shown) [Example 73, 10-[3-(1H-pyrazol-1-yl)phenyl]-1,2,3,4,4a,5-hexahydropyrazino[1,2-a][1,5]benzodiazepin-6(7H)-one] | 0.03 | 110 | > 10 | – | – | – | – | –
O=C1CC2CNCCN2c2cc(-c3ccc(F)cc3)ccc2N1 (stereo not shown) [Example 74, 10-(4-fluorophenyl)-1,2,3,4,4a,5-hexahydropyrazino[1,2-a][1,5]benzodiazepin-6(7H)-one] | 0.07 | 100 | > 10 | – | – | – | – | –
O=C1CC2CNCCN2c2cc(-c3cc4ccccc4s3)ccc2N1 (stereo not shown) [Example 75, 10-(1-benzothiophen-2-yl)-1,2,3,4,4a,5-hexahydropyrazino[1,2-a][1,5]benzodiazepin-6(7H)-one] | 1 | 80 | > 10 | – | – | – | – | –
CCN1C(=O)CC2CNCCN2c2ccc(Cl)cc21 (stereo not shown) [Example 77, 9-chloro-7-ethyl-1,2,3,4,4a,5-hexahydropyrazino[1,2-a][1,5]-benzodiazepin-6(7H)-one] | 0.2 | 100 | > 10 | – | – | – | – | –
CCN1C(=O)CC2CN(C)CCN2c2ccc(Cl)cc21 (stereo not shown) [Example 78, 9-chloro-7-ethyl-3-methyl-1,2,3,4,4a,5-hexahydropyrazino[1,2-a][1,5]benzodiazepin-6(7H)-one] | 1 | 50 | > 10 | – | – | – | – | –
CN1CCN2c3cccc(F)c3NC(=O)CC2C1 (stereo not shown) [Example 79, 8-fluoro-3-methyl-1,2,3,4,4a,5-hexahydropyrazino[1,2-a][1,5]benzodiazepin-6(7H)-one] | – | – | – | – | 7.52 | 100 | < 5.00 | –
CN1C(=O)CC2CNCCN2c2ccc(Cl)cc21 (stereo not shown) [Example 80, 9-chloro-7-methyl-1,2,3,4,4a,5-hexahydropyrazino[1,2-a][1,5]benzodiazepin-6(7H)-one] | 0.6 | – | > 10 | – | – | 100 | – | –
CN1CCC2CNCCN2c2ccc(Cl)cc21 (stereo not shown) [Example 81, 9-chloro-7-methyl-1,2,3,4,4a,5,6,7-octahydropyrazino[1,2-a][1,5]benzodiazepine] | – | – | – | – | 7.30 | > 120 | 6.00 | 20
CCN1CCC2CN(C)CCN2c2ccc(Cl)cc21 (stereo not shown) [Example 82, 9-chloro-7-ethyl-3-methyl-1,2,3,4,4a,5,6,7-octahydropyrazino[1,2-a][1,5]benzodiazepine] | 0.6 | 90 | > 10 | – | – | – | – | –
O=C1C[C@@H]2CNCCN2c2cccc(F)c2N1 [Example 83, (4aR)-8-fluoro-1,2,3,4,4a,5-hexahydropyrazino[1,2-a][1,5]benzodiazepin-6(7H)-one] | – | – | – | – | 6.12 | > 120 | 5.98 | 27
CN1CCN2c3cc(Cl)ccc3NC(=O)C[C@H]2C1 [Example 84, (4aS)-10-chloro-3-methyl-1,2,3,4,4a,5-hexahydropyrazino[1,2-a][1,5]benzodiazepin-6(7H)-one] | – | – | – | – | 7.17 | 90 | < 5.00 | –
O=C1C[C@H]2CNCCN2c2cccc(F)c2N1 [Example 85, (4aS)-8-fluoro-1,2,3,4,4a,5-hexahydropyrazino[1,2-a][1,5]benzodiazepin-6(7H)-one] | – | – | – | – | 8.29 | > 120 | < 5.00 | –
O=C1C[C@H]2CNCCN2c2c(F)cccc2N1 [Example 86, (4aS)-11-fluoro-1,2,3,4,4a,5-hexahydropyrazino[1,2-a][1,5]benzodiazepin-6(7H)-one] | – | – | – | – | 8.10 | > 120 | < 5.00 | –
O=C1C[C@@H]2CNCCN2c2c(F)cccc2N1 [Example 87, (4aR)-11-fluoro-1,2,3,4,4a,5-hexahydropyrazino[1,2-a][1,5]benzodiazepin-6(7H)-one] | – | – | – | – | 6.05 | > 120 | < 5.00 | –
CN1CCN2c3cccc(F)c3NC(=O)C[C@H]2C1 [Example 88, (4aS)-8-fluoro-3-methyl-1,2,3,4,4a,5-hexahydropyrazino[1,2-a][1,5]benzodiazepin-6(7H)-one] | – | – | – | – | 7.52 | > 120 | < 5.00 | –
Cc1cccc(-c2ccc3c(c2)N2CCNCC2CC(=O)N3)c1 (stereo not shown) [Example 89, 10-(3-methylphenyl)-1,2,3,4,4a,5-hexahydropyrazino[1,2-a][1,5]benzodiazepin-6(7H)-one] | 0.07 | > 120 | > 10 | – | – | – | – | –
O=C1CC2CNCCN2c2cc(-c3cccc(C(F)(F)F)c3)ccc2N1 (stereo not shown) [Example 90, 10-[3-(trifluoromethyl)phenyl]-1,2,3,4,4a,5-hexahydropyrazino[1,2-a][1,5]benzodiazepin-6(7H)-one] | 0.02 | > 120 | > 10 | – | – | – | – | –
CCc1cccc(-c2ccc3c(c2)N2CCNCC2CC(=O)N3)c1 (stereo not shown) [Example 91, 10-(3-ethylphenyl)-1,2,3,4,4a,5-hexahydropyrazino[1,2-a][1,5]-benzodiazepin-6(7H)-one] | 0.01 | > 120 | > 10 | – | – | – | – | –
CC(C)c1cccc(-c2ccc3c(c2)N2CCNCC2CC(=O)N3)c1 (stereo not shown) [Example 92, 10-(3-isopropylphenyl)-1,2,3,4,4a,5-hexahydropyrazino[1,2-a][1,5]benzodiazepin-6(7H)-one] | 0.02 | > 120 | > 10 | – | – | – | – | –
O=C1CC2CNCCN2c2cc(-c3cccc(OC(F)(F)F)c3)ccc2N1 (stereo not shown) [Example 93, 10-[3-(trifluoromethoxy)phenyl]-1,2,3,4,4a,5-hexahydropyrazino[1,2-a][1,5]benzodiazepin-6(7H)-one] | 0.007 | > 120 | > 10 | – | – | – | – | –
CC(C)Oc1cccc(-c2ccc3c(c2)N2CCNCC2CC(=O)N3)c1 (stereo not shown) [Example 94, 10-(3-isopropoxyphenyl)-1,2,3,4,4a,5-hexahydropyrazino[1,2-a][1,5]benzodiazepin-6(7H)-one] | 0.008 | > 120 | > 10 | – | – | – | – | –
O=C1CC2CNCCN2c2cc(-c3cccc(OCc4ccccc4)c3)ccc2N1 (stereo not shown) [Example 95, 10-[3-(benzyloxy)phenyl]-1,2,3,4,4a,5-hexahydropyrazino[1,2-a][1,5]benzodiazepin-6(7H)-one] | 0.02 | > 120 | > 10 | – | – | – | – | –
CC(C)COc1cccc(-c2ccc3c(c2)N2CCNCC2CC(=O)N3)c1 (stereo not shown) [Example 96, 10-(3-isobutoxyphenyl)-1,2,3,4,4a,5-hexahydropyrazino[1,2-a][1,5]benzodiazepin-6(7H)-one] | 0.02 | > 120 | > 10 | – | – | – | – | –
O=C1CC2CNCCN2c2cccc(Cl)c2N1 (stereo not shown) [Example 110, 8-chloro-1,2,3,4,4a,5-hexahydropyrazino[1,2-a][1,5]benzodiazepin-6(7H)-one] | – | – | – | – | 8.30 | > 120 | < 5.00 | –
O=C1CC2CNCCN2c2cc(COc3ccccc3)ccc2N1 (stereo not shown) [Example 111, 10-(phenoxymethyl)-1,2,3,4,4a,5-hexahydropyrazino[1,2-a][1,5]benzodiazepin-6(7H)-one] | 0.02 | > 120 | 0.7 | 20 | – | – | – | –
